Data taken from patent US20080255232A1, “Naphthyl Derivatives as Inhibitors of Beta-Amyloid Aggregation” (SIGMA-TAU INDUSTRIE FARMACEUTICHE RIUNITE S.P.A., priority 2005, published 2008).
Where a name gives a salt, the structure may show the parent alone. Read-outs that look alike come from different tables or passages of the source. Blank lines part the entries; values can stand above or below the compound they belong to.

Tests used:
peptide βA1-42 = target: T1, peptide βA1-42 (Homo sapiens, UniProt P05067); assay: Anti-aggregating activity on peptide βA1-42, thioflavin T fluorescence; format: biochemical; conditions: thioflavin T binding, aggregate + non aggregate β-A(1-42), 37° C., 24 hours; read-out: IC50 (dose reducing the aggregate formation of the 50%)
T1 construct: The β-A(1-42) was dissolved in a mixture of Acetonitrile and distilled water
Method: The anti-aggregating activity of the compound of formula (I) on the peptide βA1-42 is carried out via the binding of the thioflavin T according to the following procedure.
The β-A(1-42) was dissolved in a mixture of Acetonitrile and distilled water (CH3CN/H2O 1:1) to the final concentration of 1 mg/mL. The solution was divided in aliquots of 2 mL and stored at −80° C. until the use. The work solution was prepared diluting the stock solution five times with H2O (final concentration 44 μmol/L).
The β-A(1-42) was dissolved in a mixture of Acetonitrile and distilled water (CH3CN/H2O 1:1) to the final concentration of 1 mg/mL. An aliquot of 2 mL was freeze-dried to eliminate the trifluoroacetic acid residual of the peptide synthesis. The β-A(1-42) peptide was subsequently dissolved in 0.1 mL of DMSO and 5.0 mL of 2×PBS, pH 7.4. Once dissolved the β-A(1-42) was incubated to 37° C. for 8 days, at the end, after sonication, it was diluted five times with 2×PBS (final concentration 17.4 μmol/L). Waiting to be used, the aggregate β-A(1-42) was divided in aliquots and stored at −80° C.
Fluorescence Measurement with Thioflavin T
Scheme of added volumes in 96-well plates:
The assay was performed in triplicate in 96-well plates as reported above in scheme. Test compounds were added in the wells containing the aggregate β-A(1-42) then, 15 after minutes, the non-aggregate β-A(1-42) was added. The 96-well plates were incubated at 37° C. under agitation for 24 hours.
The following day, a volume of 200 μL of a solution containing 10 μmol/L thioflavin T and 50 μmol/L Na2HPO4 pH 6.5 was added to each well. Fluorescence was measured in a VICTOR 2 (WALLAC) fluorescence spectrophotometer (λex=450 nm, λem=486 nm) (Findelis M. A et al).
The data were expressed as percent of residual aggregated β-A and, when possible, the dose reducing the aggregate formation of the 50% (IC50) was estimate.
The % of aggregation was determinated by the following formula:
(βAmyloid+Test compound)−(Blank+Test compound)×100

[1] = Blood brain barrier crossing: plasma and brain concentrations after s.c. injection; format: in vivo; conditions: mice, s.c. 25 mg/kg
Method: In order to obtain basic information on the concentration achieved in brain of rodents after parental doses and their relationship with plasma concentrations, mice and rats were used. […] Compounds were determined in plasma by high-performance liquid chromatography (HPLC) after a solid liquid extraction procedure. Briefly, Oasis HLB 1 cc cartridges were pre-wetted with methanol and distilled water. Then internal standard, mouse plasma or rat plasma were added and the cartridges were washed with mater-methanoland methanol, interrupting the vacuum before the column was completely dry after each passage. The compound was removed by eluiting the cartridges with methanol and evaporated to dryness under nitrogen. The residue was dissolved in the mobile phase centrifuged and analyzed by HPLC with UV detection (224 nm).
Separation was done on a pBondapack C18 column protected by a LiChrosphere RP-8 pre-column at room temperature. The mobile phase was CH3CN:CH3OH:0.001M KH2PO4 (40:10:50 v/v) delivered at a flow rate of 1.2 mL/min.
Brain tissue was homogenized (1 g/10 ml) in CH3CN:0.001M phosphate buffer, pH 7.4 and a volume containing approximately 100 mg of tissue was centrifuged. The supernatant was processed as for plasma.
Mean brain and plasma area under the concentration-time curve (AUCt) were determined using the linear trapezoidal rule and extrapolated to infinity (AUC) by the concentration method. The elimination rate constant was calculated by least squares regression analysis of the terminal log-linear portion of the plasma and the brain drug concentration curves. The maximum concentration (Cmax) and the time (tmax) of its occurrence were read directly from the plasma and brain concentration time data.

T1 sequence (P05067 672-713): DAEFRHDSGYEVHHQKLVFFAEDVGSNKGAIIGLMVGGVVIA

Compound: Oc1ccc2ccccc2c1Cc1c(O)ccc2ccccc12 [ST1859, 1-[(2-hydroxy-1-naphthyl)methyl]-2-naphthol, reference compound]
- IC50 (peptide βA1-42): 23.5 µM

Compound: COc1ccc(Nc2ccccc2)c2ccccc12 [ST2173, 4-methoxy-N-phenyl-1-naphthalenamine]
- melting point: 141 to 143 °C

Compound: COC(=O)c1ccc(Nc2ccc(O)c3ccccc23)cc1 [ST2178, methyl 4-[(4-hydroxy-1-naphthyl)amino]benzoate]
- melting point: 188 to 190 °C
- IC50 (peptide βA1-42): 5.13 µM

Compound: O=C(O)c1ccccc1Nc1c(O)ccc2ccccc12 [ST2757, 2-[(2-hydroxy-1-naphthyl)amino]benzoic acid]
- IC50 (peptide βA1-42): 14.1 µM

Compound: COc1ccc2ccccc2c1Nc1c(OC)ccc2ccccc12 [ST2761, 2-methoxy-N-(2-methoxy-1-naphthyl)naphthalen-1-amine]
- IC50 (peptide βA1-42): 5.7 µM

Compound: Oc1c(Nc2ccccc2)ccc2ccccc12 [ST2762, 1-hydroxy-N-phenylnaphthalen-2-aminiumchloride]
- IC50 (peptide βA1-42): 2.4 µM

Compound: COc1ccc(Nc2ccc([N+](=O)[O-])c3ccccc23)cc1 [ST3451, N-(4-methoxyphenyl)-4-nitronaphthalen-1-amine]
- IC50 (peptide βA1-42): 2.7 µM

Compound: CSc1ccc(Nc2ccc(N(C)C)c3ccccc23)cc1 [ST3458, N,N-dimethyl-N′-[4-(methylthio)phenyl]naphthalene-1,4-diamine dihydrochloride]
- IC50 (peptide βA1-42): 2.2 µM

Other lines, results leading:

- melting point: 153 to 154 °C
Compound: COc1ccc(Nc2ccc(OC)c3ccccc23)cc1C(=O)O [ST2174, 2-methoxy-5-[(4-methoxy-1-naphthyl)amino]benzoic acid]

- IC50 (peptide βA1-42): 5.59 µM
- Cmax, Brain ([1]; brain): 410 ng/mL or L
- AUCt, Brain ([1]; brain, linear trapezoidal rule): 1643 ng/L · h or g
- Kp at 0.25 h ([1]; mouse, brain, sc, 25 mg/kg, 15 min, read-out: Brain to Plasma ratio): 2.3
- Kp at 0.5 h ([1]; mouse, brain, sc, 25 mg/kg, 30 min, read-out: Brain to Plasma ratio): 3.6
- Kp at 1 h ([1]; mouse, brain, sc, 25 mg/kg, 60 min, read-out: Brain to Plasma ratio): 2.5
- Kp at 2 h ([1]; mouse, brain, sc, 25 mg/kg, 120 min, read-out: Brain to Plasma ratio): 2
- Kp at 3 h ([1]; mouse, brain, sc, 25 mg/kg, 180 min, read-out: Brain to Plasma ratio): 1.8
- Kp at 4 h ([1]; mouse, brain, sc, 25 mg/kg, 240 min, read-out: Brain to Plasma ratio): 1.3
- Kp at 6 h ([1]; mouse, brain, sc, 25 mg/kg, 360 min, read-out: Brain to Plasma ratio): 1.7
- Kp ([1]; mouse, brain, sc, 25 mg/kg, read-out: AUCt, Brain to Plasma ratio): 1.9
- Kp ([1]; mouse, brain, sc, 25 mg/kg, read-out: Cmax, Brain to Plasma ratio): 2.5
- concentration at 15 min ([1]; mouse, brain, sc, 15 min, read-out: Brain (mean ± SD)): 321 ± 130 ng/g
- concentration at 30 min ([1]; mouse, brain, sc, 30 min, read-out: Brain (mean ± SD)): 398 ± 269 ng/g
- concentration at 60 min ([1]; mouse, brain, sc, 60 min, read-out: Brain (mean ± SD)): 410 ± 192 ng/g
- concentration at 120 min ([1]; mouse, brain, sc, 120 min, read-out: Brain (mean ± SD)): 289 ± 61 ng/g
- concentration at 180 min ([1]; mouse, brain, sc, 180 min, read-out: Brain (mean ± SD)): 253 ± 77 ng/g
- concentration at 240 min ([1]; mouse, brain, sc, 240 min, read-out: Brain (mean ± SD)): 220 ± 61 ng/g
- concentration at 360 min ([1]; mouse, brain, sc, 360 min, read-out: Brain (mean ± SD)): 232 ± 94 ng/g
- concentration at 15 min ([1]; mouse, plasma, sc, 15 min, read-out: Plasma (mean ± SD)): 138 ng/mL
- concentration at 30 min ([1]; mouse, plasma, sc, 30 min, read-out: Plasma (mean ± SD)): 109 ng/mL
- concentration at 60 min ([1]; mouse, plasma, sc, 60 min, read-out: Plasma (mean ± SD)): 164 ± 18 ng/mL
- concentration at 120 min ([1]; mouse, plasma, sc, 120 min, read-out: Plasma (mean ± SD)): 142 ± 16 ng/mL
- concentration at 180 min ([1]; mouse, plasma, sc, 180 min, read-out: Plasma (mean ± SD)): 139 ± 31 ng/mL
- concentration at 240 min ([1]; mouse, plasma, sc, 240 min, read-out: Plasma (mean ± SD)): 159 ± 38 ng/mL
- concentration at 360 min ([1]; mouse, plasma, sc, 360 min, read-out: Plasma (mean ± SD)): 130 ± 13 ng/mL
- Tmax ([1]; mouse, sc, brain, read-out: tmax, Brain (converted)): 1 h
- Cmax ([1]; mouse, sc, plasma): 164 ng/mL
- AUC(0-t) ([1]; mouse, sc, plasma, linear trapezoidal rule, read-out: AUCt, Plasma): 850 ng·h/mL
- Tmax ([1]; mouse, sc, plasma, read-out: tmax, Plasma (converted)): 1 h
Compound: COc1ccc(Nc2ccc(OC)c3ccccc23)cc1 [ST2175, 4-methoxy-N-(4-methoxyphenyl)-1-naphthalenamine]

- IC50 (peptide βA1-42): 5.43 µM
Compound: Oc1ccc(Nc2ccccc2)c2ccccc12 [ST2176, 4-anilino-1-naphthol]

- IC50 (peptide βA1-42): 1 µM
Compound: Oc1ccc(Nc2ccc(O)c3ccccc23)cc1 [ST2177, 4-(4-hydroxyanilino)-1-naphthol]

- melting point: 108 to 110 °C
Compound: COc1ccccc1Nc1ccc(OC)c2ccccc12 [ST2879, N-(4-methoxy-1-naphthyl)-N-(2-methoxyphenyl)amine]

- IC50 (peptide βA1-42): 2.6 µM
Compound: O=C(O)c1ccc(Nc2ccc3ccccc3c2O)cc1 [ST3459, 4-[(1-hydroxy-2-naphthyl)amino]benzoic acid]

- IC50 (peptide βA1-42): 7.2 µM
Compound: Oc1ccc(Sc2ccc(O)c3ccccc23)cc1 [ST3501, 4-[(4-hydroxyphenyl)thio]-1-naphthol]
